The test system of the test is Candida albicans. The experiment in a line: In vitro anti-fungal activity: minimum inhibitory concentration (m.i.c.) on agar plates. Type of test: cell-based. As to conditions: geometrical mean of results against a panel of 12 strains of Candida albicans; agar plates incubated for 48 hours at 37°C.

Each structure is given as a SMILES string.

In turn, `CC(C)CCC(O)(Cn1ccnc1)c1ccc(Cl)cc1Cl` (stereo not shown) [Example 18] yielded a Mean m.i.c. of 3.8. `CCCCCCC(O)(Cn1ccnc1)c1ccc(Cl)cc1Cl` (stereo not shown) [Example 10, 2-(2,4-dichlorophenyl)-1-(1-imidazolyl)-octan-2-ol] yielded a Mean m.i.c. of 3.1. To `C=CC(C)C(O)(Cn1ccnc1)c1ccc(Cl)cc1Cl` (single isomer, unassigned) [Example 3b, 2-(2,4-Dichlorophenyl)-1-(1-imidazolyl)-3-methyl-pent-4-en-2-ol] belongs 11.0; to `CC(C)(C)C(O)(Cn1ccnc1)c1ccc(Cl)cc1Cl` (stereo not shown) [Example 7], 11.0. The figure for `CCCCCCCC(O)(Cn1ccnc1)c1ccc(Cl)cc1Cl` (stereo not shown) [Example 19] is 5.6; for `CCCCC(O)(Cn1ccnc1)c1ccc(Cl)cc1Cl` (stereo not shown) [Example 6] it is 3.8; for `CCCCC(O)(Cn1ccnc1)c1ccc(Cl)cc1` (stereo not shown) [Example 20, 2-(4-Chlorophenyl)-1-(1-imidazolyl)-hexan-2-ol] it is 38.0.

The compound `CC(C)C(O)(Cn1ccnc1)c1ccc(Cl)cc1Cl` (stereo not shown) [Example 8] gave a Mean m.i.c. of 21.0.

`CCCCCC(O)(Cn1ccnc1)c1ccc(Cl)cc1Cl` (stereo not shown) [Example 9] gave a Mean m.i.c. of 5.2. In the case of `CCC(C)C(O)(Cn1ccnc1)c1ccc(Cl)cc1Cl` (stereo not shown) [Example 4, 2-(2,4-Dichlorophenyl)-1-(1-imidazolyl)-3-methyl-pentan-2-ol], the Mean m.i.c. is recorded as 12.0. The figure for `OC(CC1CC1)(Cn1ccnc1)c1ccc(Cl)cc1Cl` (stereo not shown) [Example 15] is 6.3. `CCCC(O)(Cn1ccnc1)c1ccc(Cl)cc1Cl` (stereo not shown) [Example 2, 2-(2,4-Dichlorophenyl)-1-(1-imidazolyl)-pentan-2-ol] displayed a Mean m.i.c. of 12.5. To `C=CCCC(O)(Cn1ccnc1)c1ccc(Cl)cc1Cl` (stereo not shown) [Example 11] belongs 6.8. The compound `CC(C)CC(O)(Cn1ccnc1)c1ccc(Cl)cc1Cl` (stereo not shown) [Example 16] came in with a Mean m.i.c. of 5.6.

`C=CC(C)C(O)(Cn1ccnc1)c1ccc(Cl)cc1Cl` (single isomer, unassigned) [Example 3a, 2-(2,4-Dichlorophenyl)-1-(1-imidazolyl)-3-methyl-pent-4-en-2-ol] had a Mean m.i.c. of 18.0. The figure for `CCC(O)(Cn1ccnc1)c1ccc(Cl)cc1Cl` (stereo not shown) [Example 5, 2-(2,4-dichlorophenyl)-1-(1-imidazolyl)-butan-2-ol] is 21.0.

In turn, `C=CCCCC(O)(Cn1ccnc1)c1ccc(Cl)cc1Cl` (stereo not shown) [Example 17] had a Mean m.i.c. of 8.4. Turning to `CCCCC(O)(Cn1ccnc1)c1ccccc1Cl` (stereo not shown) [Example 21, 2-(2-Chlorophenyl)-1-(1-imidazolyl)-hexan-2-ol], the Mean m.i.c. came out at 18.0. For `C=CCC(O)(Cn1ccnc1)c1ccc(Cl)cc1Cl` (stereo not shown) [Example 1, 2-(2,4-Dichlorophenyl)-1-(1-imidazolyl)-pent-4-en-2-ol], the Mean m.i.c. came to 22.0.

The values are drawn from patent EP0023103A1, “Antifungal imidazole derivatives, process for their preparation and pharmaceutical compositions thereof” (Pfizer Limited, priority 1979, dated 1981).
